This experiment concerns the target T1, human GPR84 receptor (Homo sapiens, UniProt Q9NQS5).
T1 construct: frozen aliquots prepared by acCELLerate; host or cells: CHO-K1
The experiment is described as follows: cAMP HTRF assay for identification of cellular GPR84 antagonists. In kind it is cell-based. The settings on record: CHO-K1 cells stably expressing human GPR84; Forskolin plus agonist 6-OAU; cAMP HTRF readout; average or median values. A digest of the protocol: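 CHO-K1 cells stably expressing human GPR84, preincubated with compound 30 min at room temperature, then stimulated 30 min with 6-OAU (EC80) plus forskolin (EC90). cAMP measured by HTRF 665/620 nm ratio after 60 min lysis; 11 concentrations from 20 μM to 0.07 nM in duplicate, IC50 by 4-parameter fit.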

Each structure is given as a SMILES string. A value given as a limit tells only on which side of the number the result lay.

T1 sequence (Q9NQS5 whole entry): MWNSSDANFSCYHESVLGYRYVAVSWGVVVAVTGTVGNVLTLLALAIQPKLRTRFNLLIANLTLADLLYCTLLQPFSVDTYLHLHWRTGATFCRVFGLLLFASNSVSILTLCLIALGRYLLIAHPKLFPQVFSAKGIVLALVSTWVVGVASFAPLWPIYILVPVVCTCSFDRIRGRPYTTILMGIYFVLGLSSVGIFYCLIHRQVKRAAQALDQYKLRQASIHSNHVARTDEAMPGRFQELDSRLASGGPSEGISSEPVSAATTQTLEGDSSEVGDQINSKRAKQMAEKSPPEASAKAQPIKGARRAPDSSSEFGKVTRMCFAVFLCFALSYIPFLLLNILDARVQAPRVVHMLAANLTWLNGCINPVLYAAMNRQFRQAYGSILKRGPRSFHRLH

With `Cc1c(C(=O)NCC(F)F)oc2c1-c1nn(Cc3ccc(Cl)cc3)cc1CC2` [Example 65, 2-[(4-chlorophenyl)methyl]-N-(2,2-difluoroethyl)-8-methyl-4,5-dihydro-2H-furo[2,3-g]indazole-7-carboxamide], the IC50 was found to be 7.45 µM.

As to `Cc1c(C(=O)N(C)Cc2ccncc2)oc2c1-c1nn(Cc3ccc(Cl)cc3)cc1CC2` [Example 66, 2-[(4-chlorophenyl)methyl]-/,8-dimethyl-N-[(pyridin-4-yl)methyl]-4,5-dihydro-2H-furo[2,3-g]indazole-7-carboxamide], the IC50 came to 7.59 µM.

For the compound `Cc1c(C(=O)N2CCN(S(C)(=O)=O)CC2)oc2c1-c1nn(Cc3ccc(Cl)cc3)cc1CC2` [Example 67, {2-[(4-chlorophenyl)methyl]-8-methyl-4,5-dihydro-2H-furo[2,3-g]indazol-7-yl}[4-(methanesulfonyl)piperazin-1-yl]methanone], the IC50 was determined as 7.83 µM.

With `Cc1c(C(=O)N2CC3CC3C2)oc2c1-c1nn(Cc3ccc(Cl)cc3)cc1CC2` (centres unmarked) [Example 68, (3-azabicyclo[3.1.0]hexan-3-yl){2-[(4-chlorophenyl)methyl]-8-methyl-4,5-dihydro-2H-furo[2,3-g]indazol-7-yl}methanone], the 50% inhibitory concentration (IC50) was 7.97 µM.

Turning to `Cc1c(C(=O)N(C)Cc2cccnc2)oc2c1-c1nn(Cc3ccc(Cl)cc3)cc1CC2` [Example 69, 2-[(4-chlorophenyl)methyl]-N,8-dimethyl-N-[(pyridin-3-yl)methyl]-4,5-dihydro-2H-furo[2,3-g]indazole-7-carboxamide], the IC50 worked out at 9.4 µM.

For `Cc1c(C(=O)NCCC#N)oc2c1-c1nn(Cc3ccc(Cl)cc3)cc1CC2` [Example 70, 2-[(4-chlorophenyl)methyl]-N-(2-cyanoethyl)-8-methyl-4,5-dihydro-2H-furo[2,3-g]indazole-7-carboxamide], the IC50 amounted to 9.5 µM.

Take `Cc1c(C(=O)N2CCC(O)CC2)oc2c1-c1nn(Cc3ccc(Cl)cc3)cc1CC2` [Example 71, {2-[(4-chlorophenyl)methyl]-8-methyl-4,5-dihydro-2H-furo[2,3-g]indazol-7-yl}(4-hydroxypiperidin-1-yl)methanone]: the IC50 came out at 9.57 µM.

As for `Cc1c(C(=O)N(C)Cc2ccco2)oc2c1-c1nn(Cc3ccc(Cl)cc3)cc1CC2` [Example 72, 2-[(4-chlorophenyl)methyl]-N-[(furan-2-yl)methyl]-N,8-dimethyl-4,5-dihydro-2H-furo[2,3-g]indazole-7-carboxamide], the IC50 amounted to 9.96 µM.

As for `Cc1c(C(=O)N(C)Cc2ccn(C)n2)oc2c1-c1nn(Cc3ccc(Cl)cc3)cc1CC2` [Example 73, 2-[(4-chlorophenyl)methyl]-N,8-dimethyl-N-[(1-methyl-1H-pyrazol-3-yl)methyl]-4,5-dihydro-2H-furo[2,3-g]indazole-7-carboxamide], the IC50 was found to be 10.3 µM.

Consider `Cc1c(C(=O)N(C)Cc2ncc[nH]2)oc2c1-c1nn(Cc3ccc(Cl)cc3)cc1CC2` [Example 74, 2-[(4-chlorophenyl)methyl]-N-[(1H-imidazol-2-yl)methyl]-N,8-dimethyl-4,5-dihydro-2H-furo[2,3-g]indazole-7-carboxamide], for which the IC50 is 10.8 µM.

As for `Cc1c(C(=O)N2CC(C)OC(C)C2)oc2c1-c1nn(Cc3ccc(Cl)cc3)cc1CC2` (centres unmarked) [Example 75, {2-[(4-chlorophenyl)methyl]-8-methyl-4,5-dihydro-2H-furo[2,3-g]indazol-7-yl}(2,6-dimethylmorpholin-4-yl)methanone], the IC50 is 12.3 µM.

Take `Cc1c(C(=O)N(C)Cc2cnn(C)c2)oc2c1-c1nn(Cc3ccc(Cl)cc3)cc1CC2` [Example 76, 2-[(4-chlorophenyl)methyl]-N,8-dimethyl-N-[(1-methyl-1H-pyrazol-4-yl)methyl]-4,5-dihydro-2H-furo[2,3-g]indazole-7-carboxamide]: the IC50 amounted to 13 µM.

Consider `Cc1c(C(=O)NC2CCOCC2)oc2c1-c1nn(Cc3ccc(Cl)cc3)cc1CC2` [Example 77, 2-(4-chlorobenzyl)-8-methyl-N-(tetrahydro-2H-pyran-4-yl)-4,5-dihydro-2H-furo[2,3-g]indazole-7-carboxamide], for which the IC50 is 13.8 µM.

In the case of `Cc1c(C(=O)NCc2ncc[nH]2)oc2c1-c1nn(Cc3ccc(Cl)cc3)cc1CC2` [Example 78, 2-[(4-chlorophenyl)methyl]-N-[(1H-imidazol-2-yl)methyl]-8-methyl-4,5-dihydro-2H-furo[2,3-g]indazole-7-carboxamide], the IC50 is 14.3 µM.

For the compound `Cc1c(C(=O)N2CCC(CO)CC2)oc2c1-c1nn(Cc3ccc(Cl)cc3)cc1CC2` [Example 79, {2-[(4-chlorophenyl)methyl]-8-methyl-4,5-dihydro-2H-furo[2,3-g]indazol-7-yl}[4-(hydroxymethyl)piperidin-1-yl]methanone], the IC50 is 15.5 µM.

Regarding `COCCN(C)C(=O)c1oc2c(c1C)-c1nn(Cc3ccc(Cl)cc3)cc1CC2` [Example 80, 2-[(4-chlorophenyl)methyl]-N-(2-methoxyethyl)-N,8-dimethyl-4,5-dihydro-2H-furo[2,3-g]indazole-7-carboxamide], the 50% inhibitory concentration (IC50) was 15.9 µM.

For `Cc1c(C(=O)NC2CCC(=O)NC2)oc2c1-c1nn(Cc3ccc(Cl)cc3)cc1CC2` (centres unmarked) [Example 81, 2-[(4-chlorophenyl)methyl]-8-methyl-N-(6-oxopiperidin-3-yl)-4,5-dihydro-2H-furo[2,3-g]indazole-7-carboxamide], the IC50 stood at 16.1 µM.

Take `Cc1c(C(=O)N2CCC[C@@H]2C(N)=O)oc2c1-c1nn(Cc3ccc(Cl)cc3)cc1CC2` [Example 82, 1-{2-[(4-chlorophenyl)methyl]-8-methyl-4,5-dihydro-2H-furo[2,3-g]indazole-7-carbonyl}-D-prolinamide]: the half-inhibitory concentration (IC50) was 16.4 µM.

Regarding `Cc1c(C(=O)N2CCC(C(N)=O)CC2)oc2c1-c1nn(Cc3ccc(Cl)cc3)cc1CC2` [Example 83, 1-{2-[(4-chlorophenyl)methyl]-8-methyl-4,5-dihydro-2H-furo[2,3-g]indazole-7-carbonyl}piperidine-4-carboxamide], the IC50 was found to be 16.4 µM.

For the compound `Cc1c(C(=O)N(C)Cc2ccnn2C)oc2c1-c1nn(Cc3ccc(Cl)cc3)cc1CC2` [Example 84, 2-[(4-chlorophenyl)methyl]-N,8-dimethyl-N-[(1-methyl-1H-pyrazol-5-yl)methyl]-4,5-dihydro-2H-furo[2,3-g]indazole-7-carboxamide], the IC50 was determined as 16.4 µM.

As to `Cc1c(C(=O)N(C)CCO)oc2c1-c1nn(Cc3ccc(Cl)cc3)cc1CC2` [Example 85, 2-[(4-chlorophenyl)methyl]-N-(2-hydroxyethyl)-N,8-dimethyl-4,5-dihydro-2H-furo[2,3-g]indazole-7-carboxamide], the IC50 amounted to 17 µM.

Consider `Cc1c(C(=O)NC(C)(C)C#N)oc2c1-c1nn(Cc3ccc(Cl)cc3)cc1CC2` [Example 86, 2-[(4-chlorophenyl)methyl]-N-(2-cyanopropan-2-yl)-8-methyl-4,5-dihydro-2H-furo[2,3-g]indazole-7-carboxamide], for which the IC50 was 17.1 µM.

On to `Cc1c(C(=O)N2CCCCC2)oc2c1-c1nn(Cc3ccc(Cl)cc3)cc1CC2` [Example 87], for which the half-inhibitory concentration (IC50) was found to be 17.1 µM.

`Cc1c(C(=O)N2CCCC(C(N)=O)C2)oc2c1-c1nn(Cc3ccc(Cl)cc3)cc1CC2` (centres unmarked) [Example 88, 1-{2-[(4-chlorophenyl)methyl]-8-methyl-4,5-dihydro-2H-furo[2,3-g]indazole-7-carbonyl}piperidine-3-carboxamide]: the IC50 was 17.3 µM.

Take `Cc1c(C(=O)N(C)Cc2ccccn2)oc2c1-c1nn(Cc3ccc(Cl)cc3)cc1CC2` [Example 89, 2-[(4-chlorophenyl)methyl]-N,8-dimethyl-N-[(pyridin-2-yl)methyl]-4,5-dihydro-2H-furo[2,3-g]indazole-7-carboxamide]: the IC50 is 17.4 µM.

For `Cc1c(C(=O)N2CCS(=O)(=O)CC2)oc2c1-c1nn(Cc3ccc(Cl)cc3)cc1CC2` [Example 90], the IC50 was found to be 18.9 µM.

On to `Cc1c(C(=O)N2CCC[C@H]2C(N)=O)oc2c1-c1nn(Cc3ccc(Cl)cc3)cc1CC2` [Example 91, 1-{2-[(4-chlorophenyl)methyl]-8-methyl-4,5-dihydro-2H-furo[2,3-g]indazole-7-carbonyl}-L-prolinamide], for which the IC50 was at least 20 µM.

For the compound `Cc1c(C(=O)NCCN2CCN(C)CC2)oc2c1-c1nn(Cc3ccc(F)cc3Cl)cc1CC2` [Example 93], the IC50 worked out at 0.82 µM.

Take `Cc1c(C(=O)NCc2ccon2)oc2c1-c1nn(Cc3ccc(F)cc3Cl)cc1CC2` [Example 94]: the concentration for half-maximal inhibition (IC50) amounted to 0.28 µM.

The record behind these values is patent US20240239804A1, “FUROINDAZOLE DERIVATIVES AS ANTAGONISTS OR INHIBITORS OF GPR84” (Bayer Aktiengesellschaft, priority 2021, published 2024).
